Here are results for three molecules from patent US11897856B1, “N-(Naphthalen-1-ylcarbamothioyl)furan-2-carboxamide as an eco-friendly insecticidal agent against Spodoptera littoralis (boisd.)” (KING FAISAL UNIVERSITY, priority 2023, dated 2024).

The structures appear in SMILES notation. In brackets after ≈: the same amount, converted by molar mass. Read-outs that look alike come from different tables or passages of the source.

This data set deals with Spodoptera littoralis. Kind of data set: Insecticidal bioassay screening (castor leaf dip, larval mortality). It is filed as in vivo. The following applies: for LC50: Spodoptera littoralis, in Gossypium hirsutum, foliar; for Toxicity index %: 72 hrs, Diflubenzuron's LC50/compound's LC50 x 100; for LC90 (mg/L) at 95%: after 72 hrs of treatment. Here is the method:
Five concentrations (200, 100, 50, 25, 12.5 ppm) were designed for this synthetic compound and the reference Diflubenzuron compound as the dynamic ingredients based on ppm via diluting the commercial formulation.
In this experiment, castor leaves are immersed in each of the previously prepared concentrations of the components for 10 seconds and then left to dry for 60 minutes. Larvae of the second and fourth instars of each checked strain are prepared with treated leaves in gauze-covered glass containers for 72 hrs. An untreated control is made in which leaves are dipped in triton x-100 and distilled water only. Then the preserved leaves were removed & fresh, untreated leaves were provided for 72 hours. Three replicates (10 larvae each) were checked for each concentration. Daily inspection was carried out for all treatments and mortality percentages were recorded 3 days (72 hours) after treatment. The average mortality percentage was corrected employing Abbott's formula. The corrected mortality rate for each of the previously synthesized compounds is statistically calculated according to Finney (1970). Through this rate, the corresponding concentration test lines (LDP lines) are assessed.

[1] abbreviates: 72 h, read-out: LC50 (mg/L) at 95%, 2nd instar larvae, after 72 hrs of treatment.
Where [2] appears, read: 72 h, read-out: LC50 (mg/L) at 95%, 4th instar larvae, after 72 hrs of treatment.
The mark [3] stands for this setting: against Spodoptera littoralis under laboratory conditions, instar not stated.

Consider `O=C(NC(=S)Nc1cccc2ccccc12)c1ccco1` [N-(Naphthalen-1-ylcarbamothioyl)furan-2-carboxamide], for which the LC50 was around 400 mg/L (≈ 1350 µM) under setting [1] and around 1210 mg/L (≈ 4090 µM) under setting [2].
In the case of `O=C(NC(=S)Nc1cccc2ccccc12)c1ccco1` [Compound 2, N-(Naphthalen-1-ylcarbamothioyl)furan-2-carboxamide], for the setting “2nd instar larvae”, the Toxicity index % turned out to be 11.3% and the “LC90 (mg/L) at 95%” value is on record as 3612.2 mg/L (≈ 12200 µM). For the setting “4th instar larvae”, the Toxicity index % is recorded as 12.9% and the “LC90 (mg/L) at 95%” value stood at 1727.9 mg/L (≈ 5830 µM). In addition, under setting [3], the LC50 turned out to be 400 mg/L (≈ 1350 µM). Also, the “Insecticidal activity (in words)” value (against Spodoptera littoralis, compared with Diflubenzuron) is given as “active against Spodoptera littoralis”. The “LC50 (mg/L) at 95%” value (in vivo) amounted to 1211.2 mg/L (≈ 4090 µM).
For the molecule `O=C(NC(=O)c1c(F)cccc1F)Nc1ccc(Cl)cc1` [Diflubenzuron, reference compound], the Toxicity index % (2nd instar larvae) was 100% and the Toxicity index % (4th instar larvae) came to 100%. Moreover, the “LC90 (mg/L) at 95%” value by setting is: (2nd instar larvae) 520.0 mg/L (≈ 1670 µM); (4th instar larvae) 1540.5 mg/L (≈ 4960 µM). The LC50 is 45.2 mg/L (≈ 145 µM) under setting [1], 144 mg/L (≈ 464 µM) under setting [2] and 45.2 mg/L (≈ 145 µM) under setting [3].
